The values below come from patent US20050049204A1, “Compounds for the treatment of flaviviridae infections” (priority 2003, published 2005).

The test system of data set [1] is HCV replicon RNA in Huh7 cells. As to the kind of experiment: HCV RNA levels in replicon cells over a 7-day period. The class given is cell-based, hepatitis C virus (HCV). The settings on record: for reducing the HCV RNA levels: 7-day period.
Data set [2] relates to HCV replicon RNA in Huh7 cells. Briefly: Reversal studies with natural nucleosides: HCV RNA. The following applies: for log10 reduction HCV: 100 μM, no nucleoside. The class given is cell-based, hepatitis C virus (HCV). The protocol: (§1) Incubation times differed according to the type of experiment.
(§2) Cells were incubated with the test compound and, simultaneously, the natural ribo- or 2′-deoxy nucleosides (adenosine, guanosine (G), cytidine (C), uridine (U), 2′-deoxycytidine (dC), 2′-deoxyuridine, thymidine, 2′-deoxyguanosine (dG), and 2′-deoxyadenosine) (Table 2).

Data set [3] deals with rRNA in HCV-replicon RNA-containing Huh7 cells. Briefly: rRNA levels in HCV replicon cells (cellular toxicity), Q-RT-PCR after 96 h. The settings on record: 100 μM. The protocol:
HCV replicon cells were seeded in the presence of test compound at approximately 10^3 cells per well in a 96-well plate and incubated for 96 hours. rRNA and HCV RNA were quantified by Q-RT-PCR. ●: HCV RNA levels; ◯: rRNA levels; ▾: HCV RNA levels after correction (=subtraction of rRNA) for cellular toxicity. […] The plots shown are the mean results of at least three independent experiments. EC90 values as given in Table 1 are read from the HCV curves corrected for cellular toxicity.
HCV-replicon RNA-containing Huh7 cells (Clone A cells; Apath, LLC, St. Louis, Mo.) were kept in exponential growth in DMEM media (high glucose, no pyruvate) containing 10% fetal bovine serum, 1× non-essential amino acids (100 units/ml), penicillin-streptomycin (100 μg/ml), glutamine (0.292 mg/ml), and G418 (1,000 μg/ml). Antiviral assays were performed in the same medium without G418. […] Cells were seeded in a 6-well plate at 10^5 cells per well. Candidate antiviral compounds were tested as described (Stuyver, et al. “A ribonucleoside analogue that blocks the replication of bovine viral diarrhea and hepatitis C viruses in culture” Antimicrob. Agents Chemother., January 2003, 47 (1), 244-254). Incubation times differed according to the type of experiment. At the end of the incubation step, cells were counted using the trypan-blue exclusion method, and total cellular RNA was isolated (Rneasy 96 kit, Qiagen, CA). Replicon RNA and an internal control (TaqMan Ribosomal RNA Control Reagents, Applied Biosystems, CA) were amplified in a single-step, multiplex RT-PCR protocol, as recommended by the manufacturer and as described (Stuyver, et al. “A ribonucleoside analogue that blocks the replication of bovine viral diarrhea and hepatitis C viruses in culture” Antimicrob. Agents Chemother., January 2003, 47 (1), 244-254).
Replicon cells were incubated in the absence or presence of these anti-metabolites for 96 hours, after which intracellular rRNA and HCV RNA levels were quantified (Table 1).
Background: Replicon systems follow genome replication, usually without infectious particles.

The subject of data set [4] is HCV-replicon RNA-containing Huh7 cells (HCV RNA). As to the kind of experiment: HCV replicon assay: HCV RNA quantified by Q-RT-PCR after 96 h of compound exposure. The class given is cell-based, hepatitis C virus (HCV). The following applies: for log reduction at 10 µM / log reduction at 100 µM / EC90: Hepatitis C virus; for log reduction at 10 µM: read-out: Corrected HCV RNA log10 reduction at 10 μM; for EC90: read-out: Corrected HCV RNA EC90. The protocol: as §1

Data set [5] relates to HCV replicon-containing Huh7 cell line. Briefly: Dynamics of replicon cell growth (cell count) over a 7-day period. The settings on record: for effect on cell proliferation: 7-day period; for effect on cell growth: seven-day assay, tested at approximately EC90 value.
The subject of data set [6] is rRNA in HCV replicon Huh7 cells. As to the kind of experiment: Reversal studies with natural nucleosides: rRNA. The class given is cell-based. The following applies: for log10 reduction rRNA: no nucleoside. As for the experimental part:
as §1, §2

The mark [7] stands for this setting: Huh-7, 96 h, corrected by subtraction of rRNA.
[8] abbreviates: Huh-7, 96 h, corrected by subtraction of rRNA, read-out: Corrected HCV RNA log10 reduction at 100 μM.
The mark [9] stands for this setting: Huh-7, 96 h, read-out: Log10 RNA reduction (100 μM) HCV.
Where [10] appears, read: Huh-7, 96 h, read from HCV curves corrected for rRNA reduction.
[11] abbreviates: 96 h, corrected by subtraction of rRNA.

Like-named read-outs stand apart in the source and are kept apart here. Where only a bound is given, the exact number is not on record here.

The term EC90 denotes the point of the concentration-response curve where the effect stands at 90%. Regarding `C[C@@]1(O)[C@H](O)[C@@H](CO)O[C@H]1n1cnc2c(N)ncnc21` [2′C—CH3-A, 2′-C-methyl-adenosine], the “reducing the HCV RNA levels” value in data set [1] (20 μM) was “very potent”. Besides, the “log10 reduction HCV” value in data set [2] is 2.32 ± 0.11 log10. The “Log10 RNA reduction (100 μM) rRNA” value in data set [3] came out at 2.96 ± 0.08 log10. For the same molecule, the log reduction at 10 µM in data set [4] (setting [7]) is 2.05. For the same molecule, the log reduction at 100 µM was -0.64 ± 0.18 in data set [4] (setting [8]) and 2.32 ± 0.11 in data set [4] (setting [9]). The concentration for an effect of 90% (EC90) in data set [4] (setting [10]) is < 1 µM. The “effect on cell proliferation” value in data set [5] (20 μM) is “minimal”. Moreover, in data set [6] (100 μM), the “log10 reduction rRNA” value came to 2.96 ± 0.08 log10.
As to `C[C@@]1(O)[C@H](O)[C@@H](CO)O[C@H]1n1ccc(N)nc1=O` [2′C—CH3—C, 2′-C-methyl-cytidine], the “reducing the HCV RNA levels” value in data set [1] (100 μM) was “very potent”. The “log10 reduction HCV including natural nucleoside” value in data set [2] (25 μM + C at 50 μM) came out at 0.48 ± 0.02 log10. The “Log10 RNA reduction (100 μM) rRNA” value in data set [3] is on record as −0.02 ± 0.05 log10. Also, the log reduction at 10 µM in data set [4] (setting [7]) stood at 1. Moreover, the log reduction at 100 µM is 2.21 ± 0.47 in data set [4] (setting [8]) and 2.2 ± 0.52 in data set [4] (setting [9]). The EC90 in data set [4] (setting [10]) was determined as 10.4 µM. Also, the “effect on cell proliferation” value in data set [5] (100 μM) is on record as “no”. Moreover, the “log10 reduction rRNA including natural nucleoside” value in data set [6] (25 μM + C at 50 μM) is 0.14 ± 0.04 log10. Further, in data set [6] (25 μM), the “log10 reduction rRNA” value was −0.01 ± 0.02 log10.
In the case of `O=C(O)C[C@H](NC(=O)CP(=O)(O)O)C(=O)O` [PALA, N-(phosphonoacetyl)-L-aspartate], the “log10 reduction HCV including natural nucleoside” value in data set [2] (100 μM + U at 50 μM) was determined as 0.14 ± 0.03 log10. In data set [2], the “log10 reduction HCV” value turned out to be 1.77 ± 0.02 log10. Moreover, in data set [3], the “Log10 RNA reduction (100 μM) rRNA” value is 0.48 ± 0.02 log10. Moreover, in data set [4] (setting [11]), the “Corrected HCV RNA log10 reduction at 10 μM” value was 1.18 ± 0.11 log10 and the “Corrected HCV RNA log10 reduction at 100 μM” value was 1.30 ± 0.05 log10. In addition, the EC90 in data set [4] (Huh-7, 96 h) turned out to be 7.6 µM. The “effect on cell growth” value in data set [5] is listed as “minimal effect”. Moreover, the “log10 reduction rRNA including natural nucleoside” value in data set [6] (100 μM + U at 50 μM) is listed as −0.13 ± 0.10 log10. For the same molecule, the “log10 reduction rRNA” value in data set [6] (100 μM) is reported as 0.48 ± 0.02 log10.
Turning to `NC(=O)c1[nH]nc([C@@H]2O[C@H](CO)[C@@H](O)[C@H]2O)c1O` [pyrazofurin], in data set [1] (seven-day assay, tested at approximately EC90 value), the “inhibition of the HCV RNA replication” value is recorded as “very potent inhibition”. The “log10 reduction HCV including natural nucleoside” value in data set [2] (100 μM + U at 50 μM) was found to be 0.35 ± 0.03 log10. Further, in data set [2], the “log10 reduction HCV” value is 1.88 ± 0.05 log10. The “Log10 RNA reduction (100 μM) rRNA” value in data set [3] came to 0.42 ± 0.03 log10. For the same molecule, in data set [4] (setting [11]), the “Corrected HCV RNA log10 reduction at 10 μM” value came out at 1.16 ± 0.21 log10 and the “Corrected HCV RNA log10 reduction at 100 μM” value is 1.46 ± 0.08 log10. Also, the EC90 in data set [4] (Huh-7, 96 h) was 3.8 µM. Further, in data set [5], the “effect on cell growth” value is given as “minimal effect”. Further, the “log10 reduction rRNA including natural nucleoside” value in data set [6] (100 μM + U at 50 μM) was −0.01 ± 0.04 log10. Moreover, in data set [6] (100 μM), the “log10 reduction rRNA” value is recorded as 0.42 ± 0.03 log10.
